# Test results from PMC8694143 (Microbiology Spectrum, 2021).
# Residues, ends and D or L forms follow the SMILES beside them. No end group written: not given here. *: point of attachment. For = O=C*
# Assays:
# SspA protease = SspA protease (Staphylococcus aureus, UniProt P0C1U8); assay: SspA protease treatment with HPLC/MS analysis; type: in vitro ADME; conditions: peptide 45 μL at 10 mg/mL + SspA 5 μL at 2 mg/mL, 100 mM HEPES pH 7.8, 37°C, 5 h
# Protocol: SspA protease was resuspended at 2 mg/mL in 100 mM HEPES (pH 7.8). Peptide samples (45 μL at 10 mg/mL) were mixed with SspA (5 μL at 2 mg/mL) and incubated at 37°C for a total of 5 h. The antimicrobial activities of the reaction mixtures were assayed by spotting 5 μL (∼45 μg) of each on either M. luteus or S. aureus test organisms as described above. Additional samples were flash frozen in liquid nitrogen and stored at −80°C prior to high-pressure liquid chromatography-mass spectrometry (HPLC/MS) analysis.
# HPLC/MS analyses were conducted to assess the proteolytic cleavage of STIPs by the SspA protease and catalogue peptides in the reaction mixtures. An Agilent Infinity II 1260 HPLC outfitted with a Phenomenex Lune C5 column (4.6 by 150 mm, 5 μm) was used to separate the peptide fragments using a binary solvent system consisting of solvent A (water, 0.05% formic acid) and solvent B (acetonitrile, 0.05% formic acid) operating at 0.7 mL/min. A 5-μL volume (∼4.5 μg) of each sample was injected at 10% solvent B, followed by a two-step gradient elution from 10% to 50% solvent B in 30 min, then 50% to 100% B in 10 min. The HPLC was coupled to an Advion CMS(L) single quadrupole mass detector through an electrospray ionization source, and ions were detected between 100 and 2,000 m/z. Low temperature and fragmentation settings were used: capillary temperature 135°C, capillary voltage 120 V, source voltage offset 20 V, source gas temperature 135°C, and electrospray ionization (ESI) voltage 3,500 V.
# MRSA ATCC BAA-42 = assay: MIC determination in broth; type: cell-based, Staphylococcus aureus; conditions: cation-adjusted MH broth, 37°C, 16 h
# Outline: (§1)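 Strains were grown in LB at 37°C, then diluted in cation-adjusted Mueller-Hinton broth to OD 5 × 10^−4 (∼10^5 CFU/mL). Peptides were added in 2-fold dilutions, and plates were incubated without shaking at 37°C.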
# MRSA ATCC BAA-1683 = assay: MIC determination in broth; type: cell-based, Staphylococcus aureus; conditions: cation-adjusted MH broth, 37°C, 16 h
# Outline: as §1
# MRSA ATCC BAA-2094 = assay: MIC determination in broth; type: cell-based, Staphylococcus aureus; conditions: cation-adjusted MH broth, 37°C, 16 h
# Outline: as §1
# MRSA ATCC BAA-44 = assay: MIC determination in broth; type: cell-based, Staphylococcus aureus; conditions: cation-adjusted MH broth, 37°C, 16 h
# Outline: as §1
# MRSA ATCC BAA-2313 = assay: MIC determination in broth; type: cell-based, Staphylococcus aureus; conditions: cation-adjusted MH broth, 37°C, 16 h
# Outline: as §1
# MRSA ATCC BAA-41 = assay: MIC determination in broth; type: cell-based, Staphylococcus aureus; conditions: cation-adjusted MH broth, 37°C, 16 h
# Outline: as §1
# MRSA ATCC 33592 = assay: MIC determination in broth; type: cell-based, Staphylococcus aureus; conditions: cation-adjusted MH broth, 37°C, 16 h
# Outline: as §1
# S. aureus ATCC 29213 = assay: MIC determination in broth; type: cell-based, Staphylococcus aureus; conditions: cation-adjusted MH broth, 37°C, 16 h
# Outline: as §1
# [1] = Circular dichroism spectroscopy; type: physicochemical; conditions: for α-Helical content (%): CD, 50% TFE (vol/vol), peptide 0.2 mg/mL, room temperature
# Protocol: Peptides were dissolved in ultrapure water or 50% TFE (vol/vol) at a concentration of 0.2 mg/mL for spectroscopy. Spectra of samples in a 1 mm pathlength quartz cuvette were recorded from 180 to 260 nm at 0.5 nm steps using an Applied Photophysics Chirascan Plus CD spectrophotometer operating at room temperature.
# sheep red blood cells = assay: Hemolytic activity assay; type: cell-based; conditions: peptides at 100 μg/mL, 1 h, relative to the δ-toxin and other STIPs
# Protocol: Thirty-five percent defibrinated sheep’s blood (vol/vol) was centrifuged for 5 min at 4,000 rpm to harvest red blood cells. The cells were washed three times with PBS and harvested by centrifugation prior to dilution to 15% (vol/vol) in PBS in order to evaluate peptide-mediated hemolysis. The assay was performed in 96-well microtiter plates using peptides at 100 μg/mL in a 200-μL volume. […] was used as a negative control and Triton X-100 (0.1% vol/vol) was used as a positive control for complete lysis. After 1 h of incubation, the 96-well microtiter plates were centrifuged at 4,500 rpm for 10 min and a 150 μL aliquot of the supernatant from each sample was carefully transferred to a new 96-well plate. The absorbance of the supernatant was then measured at 540 nm using a Varioskan Lux plate reader (Thermo Scientific). The hemolytic activity is reported relative to complete lysis (%) obtained using Triton X-100. Experiments were performed in triplicate, and statistical differences in hemolysis were measured using an unpaired two-tailed Student’s t test to compare the STIPs and deformylated δ-toxin to the formylated δ-toxin.
# S. aureus = assay: MIC of STIP3-1 alanine variants in liquid broth; type: cell-based, Staphylococcus aureus; conditions: Table S4; maximum concentration tested 200 μg/mL; strain not given
# Protocol: The MICs were measured for bioactive peptides identified from the initial screen. […] […] Plates were incubated without shaking at 30 or 37°C depending on the organism.
# M. luteus ATCC 4698 = assay: MIC determination in broth; type: cell-based, Micrococcus luteus; conditions: cation-adjusted MH broth, ~10^5 CFU/mL, 30°C, 48 h
# Protocol: M. luteus ATCC 4698, S. aureus ATCC 29213, a panel of 7 MRSA (ATCC MP-2) strains, which includes ATCC BAA-41, BAA-42, BAA-44, BAA-1683, BAA-2094, BAA-2313, and 33592, and a series of additional bacterial isolates from human and veterinary cases were used in this study (Table S6). Bacterial strains were routinely grown in lysogeny broth (LB: 10 g/L tryptone, 5 g/L yeast extract, 10 g/L NaCl) at 30°C (M. luteus) or 37°C (Staphylococcus spp.) prior to use in specific experiments described below.
# The MICs were measured for bioactive peptides identified from the initial screen. Cation-adjusted Mueller-Hinton (MH) broth was used as the growth medium for MIC determination experiments. Bacterial cultures were diluted to an OD of 5 × 10^−4 (∼10^5 CFU/mL) in 200 μL MH broth mixed with peptides in a 2-fold dilution series arrayed in 96-well plates. Plates were incubated without shaking at 30 or 37°C depending on the organism.
# HeLa (ATCC CCL-2) cells = assay: HeLa cytotoxicity, alamarBlue; type: cell-based, human; conditions: monolayers, 3.13 to 200 μg/mL, 24 h, alamarBlue fluorescence; estimated
# Protocol: Cytotoxicity was measured using the 3D EpiDerm skin tissues and HeLa (ATCC CCL-2) cells using a fluorescent reporter of cell viability, alamarBlue (ThermoFisher Scientific). 3D EpiDerm skin tissues (MatTek EPI-200-AFAB) were transferred to a 12-well plate containing 600 μL of AFAB-assay medium supplemented with 10% vol/vol alamarBlue. […] HeLa cells were seeded in a 96-well plate at 2 × 10^4 cells/per well and incubated overnight at 37°C in a humidified 5% CO2 environment to prepare wells at ∼50% confluence for treatments after spent Dulbecco’s modified Eagle’s medium (DMEM) was removed and cells were washed with PBS. Assays were then performed using phenol red-free DMEM supplement with 9% vol/vol alamarBlue and peptide concentrations varying from 3.13 to 200 μg/mL. After a 24 h incubation period, alamarBlue fluorescence emission was measured at 590 nm upon excitation at 560 nm using Varioskan Lux plate reader (Thermo Scientific). Fluorescence intensities of treated cultures were normalized to measurement made for untreated control samples. Experimental data sets were fit to nonlinear dose-response curves to determine IC50 values using Origin 2019.
# [2] = δ-toxins, highest conc. tested 200 μg/mL
# [3] = STIP3 variants, highest conc. tested 100 μg/mL, ~10^5 CFU/mL, 2-fold dilution series
# SspA protease, sequence (P0C1U8 69-336): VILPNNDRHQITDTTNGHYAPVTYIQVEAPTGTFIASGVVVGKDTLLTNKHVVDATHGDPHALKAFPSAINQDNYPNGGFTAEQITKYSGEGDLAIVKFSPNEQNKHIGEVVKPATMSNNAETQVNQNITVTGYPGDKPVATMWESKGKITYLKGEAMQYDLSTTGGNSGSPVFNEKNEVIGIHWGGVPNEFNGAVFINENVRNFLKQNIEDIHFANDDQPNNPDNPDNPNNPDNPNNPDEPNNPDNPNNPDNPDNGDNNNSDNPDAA
Compound,Susceptibility to SspA cleavage (SspA protease),"MIC, S. aureus ATCC BAA 42 (SCCmec VI) (MRSA ATCC BAA-42; [2])","MIC, S. aureus ATCC BAA 1683 (SCCmec IV) (MRSA ATCC BAA-1683; [2])","MIC, S. aureus ATCC BAA 2094 (SCCmec V) (MRSA ATCC BAA-2094; [2])","MIC, S. aureus ATCC BAA 44 (SCCmec I) (MRSA ATCC BAA-44; [2])","MIC, S. aureus ATCC BAA 2313 (SCCmec XI) (MRSA ATCC BAA-2313; [2])","MIC, S. aureus ATCC BAA 41 (SCCmec II) (MRSA ATCC BAA-41; [2])","MIC, S. aureus ATCC 33592 (SCCmec III) (MRSA ATCC 33592; [2])","MIC, S. aureus ATCC 29213 (S. aureus ATCC 29213; [2])",α-Helical content (%) [1] [%],also measured
CC[C@H](C)[C@H](NC(=O)[C@H](Cc1c[nH]c2ccccc12)NC(=O)[C@H](CCCCN)NC(=O)[C@@H](NC(=O)[C@H](CC(C)C)NC(=O)CNC(=O)CNC(=O)[C@@H](NC(=O)[C@@H](NC(=O)[C@H](CCC(=O)O)NC(=O)[C@@H](NC(=O)[C@@H](NC(=O)[C@H](CC(=O)O)NC(=O)[C@H](CCCCN)NC(=O)[C@@H](NC(=O)[C@H](CCSC)NC=O)[C@@H](C)O)[C@@H](C)CC)C(C)C)[C@@H](C)O)C(C)C)C(C)C)C(=O)N[C@@H](CC(C)C)C(=O)N[C@@H](CC(=O)O)C(=O)N[C@H](C(=O)N[C@H](C(=O)N[C@@H](CCCCN)C(=O)N[C@@H](CCCCN)C(=O)N[C@@H](Cc1ccccc1)C(=O)N[C@@H](C)C(=O)O)C(C)C)[C@@H](C)O [δ-toxin] (For-MTKDIVETVGGLVKWILDTVKKFA-OH; C-terminus assumed),no SspA cleavage was observed,> (no inhibition was observed at 100 μg/mL for the STIP3 variants or 200 μg/mL for the δ-toxins),> (no inhibition was observed at 100 μg/mL for the STIP3 variants or 200 μg/mL for the δ-toxins),> (no inhibition was observed at 100 μg/mL for the STIP3 variants or 200 μg/mL for the δ-toxins),> (no inhibition was observed at 100 μg/mL for the STIP3 variants or 200 μg/mL for the δ-toxins),> (no inhibition was observed at 100 μg/mL for the STIP3 variants or 200 μg/mL for the δ-toxins),> (no inhibition was observed at 100 μg/mL for the STIP3 variants or 200 μg/mL for the δ-toxins),> (no inhibition was observed at 100 μg/mL for the STIP3 variants or 200 μg/mL for the δ-toxins),> (no inhibition was observed at 100 μg/mL for the STIP3 variants or 200 μg/mL for the δ-toxins),88,"Secondary structure by CD ([1]; water and 50% trifluoroethanol (vol/vol), 0.2 mg/mL): α-helical in both solvents"
"MTKDIVETVGGLVKWILDTVKKFA [δ-toxin (df), deformylated full-length S. auricularis δ-toxin, reference compound]",susceptible to SspA cleavage,> (no inhibition was observed at 100 μg/mL for the STIP3 variants or 200 μg/mL for the δ-toxins),> (no inhibition was observed at 100 μg/mL for the STIP3 variants or 200 μg/mL for the δ-toxins),> (no inhibition was observed at 100 μg/mL for the STIP3 variants or 200 μg/mL for the δ-toxins),> (no inhibition was observed at 100 μg/mL for the STIP3 variants or 200 μg/mL for the δ-toxins),> (no inhibition was observed at 100 μg/mL for the STIP3 variants or 200 μg/mL for the δ-toxins),> (no inhibition was observed at 100 μg/mL for the STIP3 variants or 200 μg/mL for the δ-toxins),> (no inhibition was observed at 100 μg/mL for the STIP3 variants or 200 μg/mL for the δ-toxins),> (no inhibition was observed at 100 μg/mL for the STIP3 variants or 200 μg/mL for the δ-toxins),87,
"TVGGLVKWILATVKKFA-NH2 [STIP3-28, rationally designed STIP3-1 variant, C-terminal amide]",,,,,,,,,,,"Change of hemolytic activity (sheep red blood cells): increase in hemolysis; MIC, S. aureus ATCC BAA 42 (SCCmec VI) (MRSA ATCC BAA-42; [3]): 12.5 µg/mL; MIC, S. aureus ATCC BAA 1683 (SCCmec IV) (MRSA ATCC BAA-1683; [3]): 12.5 µg/mL; MIC, S. aureus ATCC BAA 2094 (SCCmec V) (MRSA ATCC BAA-2094; [3]): 6.25 µg/mL; MIC, S. aureus ATCC BAA 44 (SCCmec I) (MRSA ATCC BAA-44; [3]): 12.5 µg/mL; MIC, S. aureus ATCC BAA 2313 (SCCmec XI) (MRSA ATCC BAA-2313; [3]): 12.5 µg/mL; MIC, S. aureus ATCC BAA 41 (SCCmec II) (MRSA ATCC BAA-41; [3]): 12.5 µg/mL; MIC, S. aureus ATCC 33592 (SCCmec III) (MRSA ATCC 33592; Table S5, STIP3 variants, highest conc. tested 100 μg/mL, ~10^5 CFU/mL, 2-fold dilution series): 6.25 µg/mL; MIC, S. aureus ATCC 29213 (S. aureus ATCC 29213; [3]): 25 µg/mL"
TVGGLVKWILDTVKKFA [STIP3-1],further proteolysis can occur,,,,,,,,,,"MIC, S. aureus (alanine substituted STIP3-1, liquid broth) (S. aureus): 100 µg/mL; MIC, M. luteus (M. luteus ATCC 4698): 12.5 µg/mL; MIC (μg/mL) for MRSA ATCC 33592 (MRSA ATCC 33592; Table 1 and text, ~10^5 CFU/mL): 100 µg/mL; IC50, HeLa cell survival (HeLa (ATCC CCL-2) cells): 200 ± 30 µg/mL"
